Experimental data: patent publication US11214803B2, “Modulators of YAP1 expression” (Ionis Pharmaceuticals, Inc., priority 2019, dated 2022)
Strand notation (5' to 3'): a small letter for the sugar, then the base; units joined by * are phosphorothioate-linked, units joined directly phosphodiester-linked; [ ] holds rarer units or linkages, { } end groups; capitals alone tell only the bases. k = constrained ethyl (cEt); [5mC] = 5-methylcytosine; d = 2'-deoxy (DNA)

Tested on: Yap1 mRNA
Assay: Antisense inhibition of human Yap1 in A-431 cells by cEt gapmers, single dose (Example 2, RTS4814)
Assay type: cell-based
Settings: A-431 cells, 5,000 cells per well, free uptake, 2,000 nM modified oligonucleotide, approx. 48 hours, RTS4814, normalized to RIBOGREEN; Table 4; asterisk (*) = targets amplicon region of primer probe set
Protocol: Modified oligonucleotides were designed to target a Yap1 nucleic acid and were tested for their effect on Yap1 mRNA level in vitro. The modified oligonucleotides were tested in a series of experiments that had similar culture conditions. Cultured A-431 cells at a density of 5,000 cells per well were treated using free uptake with 2,000 nM of modified oligonucleotide. After a treatment period of approximately 48 hours, RNA was isolated from the cells and Yap1 mRNA levels were measured by quantitative real-time RTPCR. Human primer probe set RTS4814 was used to measure mRNA levels. Yap1 mRNA levels were normalized to total RNA content, as measured by RIBOGREEN®. Results are presented in the tables below as percent control of the amount of Yap1 mRNA relative to untreated control cells (% UTC). The modified oligonucleotides with percent control values marked with an asterisk (*) target the amplicon region of the primer probe set. Additional assays may be used to measure the potency and efficacy of the modified oligonucleotides targeting the amplicon region.
The newly designed modified oligonucleotides in the Tables below were designed as 3-10-3 cEt gapmers. The gapmers are 16 nucleosides in length, wherein the central gap segment comprises of ten 2′-deoxynucleosides and is flanked by wing segments on the 5′ direction and the 3′ direction comprising three nucleosides each. Each nucleoside in the 5′ wing segment and each nucleoside in the 3′ wing segment has a cEt sugar modification. The internucleoside linkages throughout each gapmer are phosphorothioate (P═S) linkages. All cytosine residues throughout each gapmer are 5-methylcytosines.
“Start site” indicates the 5′-most nucleoside to which the gapmer is targeted in the human gene sequence. “Stop site” indicates the 3′-most nucleoside to which the gapmer is targeted human gene sequence. […] Activity ofthe modified oligonucleotide may be defined in a different experiment.

Substance | YAP1 (% UTC)
716544 (antisense kT*kA*k[5mC]*dT*dT*dA*dA*d[5mC]*dA*d[5mC]*dA*dG*d[5mC]*kA*kA*k[5mC]) [Compound 716544] | 71

Same assay, conditions: Table 5; A-431 cells, 5,000 cells per well, free uptake, 2,000 nM modified oligonucleotide, approx. 48 hours; RTS4814; normalized to RIBOGREEN; Yap1 mRNA relative to untreated control cells

Substance | YAP1 (% UTC)
716563 (kT*kG*kA*dA*dG*d[5mC]*dA*dA*dG*dT*dT*d[5mC]*dT*k[5mC]*kA*kA; antisense) [Compound 716563] | 126
716407 (k[5mC]*kT*kT*dA*dG*dT*d[5mC]*d[5mC]*dA*d[5mC]*dT*dG*dT*k[5mC]*kT*kG; antisense) [Compound 716407] | 35
716425 (kG*k[5mC]*kA*dA*dT*dA*d[5mC]*dA*dT*dT*dA*dA*d[5mC]*kA*kG*k[5mC]; antisense) [Compound 716425] | 71

Same assay, conditions: Table 6; A-431 cells, 5,000 cells per well, free uptake, 2,000 nM modified oligonucleotide, approx. 48 hours; RTS4814; normalized to RIBOGREEN; Yap1 mRNA relative to untreated control cells

Substance | YAP1 (% UTC)
716363 (k[5mC]*kG*kG*dA*d[5mC]*dG*dG*d[5mC]*dG*dG*dG*d[5mC]*d[5mC]*k[5mC]*kT*kG; antisense) [Compound 716363] | 103
716387 (kT*kA*kT*dG*dG*dT*dT*dT*dA*dT*dA*dT*dA*kG*kT*kA; antisense) [Compound 716387] | 33
716393 (kT*kT*kG*d[5mC]*dT*dG*d[5mC]*dT*dG*dG*dT*dT*dG*kG*kA*kG; antisense) [Compound 716393] | 46

Same assay, conditions: Table 18; A-431 cells, 5,000 cells per well, free uptake, 2,000 nM modified oligonucleotide, approx. 48 hours; RTS4814; normalized to RIBOGREEN; Yap1 mRNA as percent of untreated control

Substance | YAP1 (% UTC)
1075428 (antisense kT*kA*kT*dA*dT*dA*dA*dG*dG*d[5mC]*dA*dT*d[5mC]*kT*kT*kG) [Compound 1075428] | 53
1075652 (kG*kT*kA*dT*dA*dT*dT*dA*d[5mC]*dA*dA*dT*d[5mC]*k[5mC]*k[5mC]*kA; antisense) [Compound 1075652] | 40
1076292 (kT*kA*kT*dT*dA*dT*dT*dG*dA*dG*dT*dT*dA*kT*k[5mC]*k[5mC]; antisense) [Compound 1076292] | 27
1075780 (kT*kA*kT*dA*dA*dT*dA*dA*dT*d[5mC]*d[5mC]*dA*dG*kA*kA*k[5mC]; antisense) [Compound 1075780] | 98

Same assay, conditions: Table 20; Yap1 mRNA, percent of untreated control; 3-10-3 cEt gapmers targeting SEQ ID NO.: 1 and 2

Substance | YAP1 (% UTC)
1074214 (antisense kT*k[5mC]*k[5mC]*dG*dG*d[5mC]*dG*dG*d[5mC]*dT*dT*dG*dA*kA*kG*kA) [Compound 1074214] | 89
1076518 (antisense kG*kA*kT*dA*dA*dG*d[5mC]*dA*d[5mC]*d[5mC]*dA*d[5mC]*d[5mC]*kA*kT*kA) [Compound 1076518] | 25

Same assay, conditions: Table 21; Yap1 mRNA, percent of untreated control; 3-10-3 cEt gapmers targeting SEQ ID NO.: 1 and 2

Substance | YAP1 (% UTC)
1075015 (antisense k[5mC]*kA*kG*dA*dA*dT*dA*dA*dG*dT*dA*dT*dG*kA*kT*kT) [Compound 1075015] | 55
1075111 (antisense kT*kA*kG*dG*dA*dA*dT*dA*dT*dG*dG*dG*dT*kA*kG*kT) [Compound 1075111] | 5
1074471 (k[5mC]*k[5mC]*k[5mC]*d[5mC]*d[5mC]*d[5mC]*d[5mC]*dA*d[5mC]*d[5mC]*dG*dA*d[5mC]*k[5mC]*k[5mC]*kT; antisense) [Compound 1074471] | 69

Same assay, conditions: Table 22; Yap1 mRNA as percent of untreated control; 3-10-3 cEt gapmers; single dose

Substance | YAP1 (% UTC)
1075432 (antisense k[5mC]*kT*kA*dA*d[5mC]*dT*dA*dA*dA*d[5mC]*dT*dG*dA*kT*kT*k[5mC]) [Compound 1075432] | 121
1074664 (antisense kG*k[5mC]*kA*dT*dT*d[5mC]*dT*dA*dG*dG*dT*dA*dG*kA*kA*kT) [Compound 1074664] | 49
1076072 (k[5mC]*kA*k[5mC]*dA*dA*dA*dA*dA*d[5mC]*dT*dG*dG*dT*k[5mC]*kT*kG; antisense) [Compound 1076072] | 18
1074984 (antisense kA*kT*k[5mC]*dA*d[5mC]*d[5mC]*dT*dT*dT*dT*dA*dT*dT*kG*k[5mC]*k[5mC]) [Compound 1074984] | 31
1075912 (kA*kG*kT*dT*dA*dT*dA*d[5mC]*dA*d[5mC]*dA*dA*d[5mC]*k[5mC]*kA*k[5mC]; antisense) [Compound 1075912] | 13
1075368 (kG*kA*kG*dA*dA*dT*dA*dA*dG*d[5mC]*dA*dA*dT*k[5mC]*kA*kG; antisense) [Compound 1075368] | 24

Same assay, conditions: Table 23; Yap1 mRNA as percent of untreated control; 3-10-3 cEt gapmers; single dose

Substance | YAP1 (% UTC)
1076457 (antisense kG*kA*kA*d[5mC]*dT*dA*dT*dA*dA*dT*d[5mC]*dT*dT*kA*kT*kA) [Compound 1076457] | 74
1074601 (antisense k[5mC]*k[5mC]*kA*dG*d[5mC]*dT*dA*dA*d[5mC]*dT*d[5mC]*dA*dA*kA*kA*k[5mC]) [Compound 1074601] | 24

Same assay, conditions: Table 24; Yap1 mRNA as percent of untreated control; 3-10-3 cEt gapmers targeting SEQ ID NO.: 1, and 2

Substance | YAP1 (% UTC)
1075626 (k[5mC]*kA*kT*dT*dA*dG*d[5mC]*d[5mC]*dA*dA*dA*dG*d[5mC]*kT*k[5mC]*kA; antisense) [Compound 1075626] | 34
1076042 (k[5mC]*kT*kT*dA*dA*dG*d[5mC]*dA*dA*dG*dA*dG*dT*k[5mC]*k[5mC]*kA; antisense) [Compound 1076042] | 35
1076074 (k[5mC]*kT*kA*dA*dT*dT*dA*dG*d[5mC]*dT*dT*dT*d[5mC]*kA*kG*k[5mC]; antisense) [Compound 1076074] | 92
1076106 (k[5mC]*kT*kA*d[5mC]*dG*dA*dA*dA*dT*dA*dG*dT*dA*kA*k[5mC]*kT; antisense) [Compound 1076106] | 77
1076010 (kT*kA*kT*dA*dA*dA*d[5mC]*dA*dA*dT*dA*dG*d[5mC]*kG*kA*kA; antisense) [Compound 1076010] | 44

Same assay, conditions: Table 25; Yap1 mRNA as percent of untreated control; 3-10-3 cEt gapmers targeting SEQ ID NO.: 1, and 2

Substance | YAP1 (% UTC)
1076139 (k[5mC]*kG*kA*dA*dA*dA*dA*dA*dG*d[5mC]*d[5mC]*dA*dA*k[5mC]*kA*kA; antisense) [Compound 1076139] | 18
1075947 (k[5mC]*kT*kT*dT*dA*dT*dA*dG*dG*dA*dA*dT*dA*kG*kA*kG; antisense) [Compound 1075947] | 95
1074347 (antisense kG*kT*kT*dA*dA*dG*dG*dA*dA*dA*dG*dG*dA*kT*k[5mC]*kT) [Compound 1074347] | 34
1075691 (k[5mC]*kG*kT*d[5mC]*dA*dA*dA*dA*dT*dT*dA*dA*d[5mC]*kA*kG*kA; antisense) [Compound 1075691] | 46

Same assay, conditions: Table 33; Yap1 mRNA, percent of untreated control; 3-10-3 cEt gapmers targeting SEQ ID NO.: 1, and 2

Substance | YAP1 (% UTC)
1076179 (kA*kA*kT*dT*dA*dG*d[5mC]*d[5mC]*dA*dA*d[5mC]*d[5mC]*dA*k[5mC]*k[5mC]*kT; antisense) [compound 1076179] | 38
1076147 (kA*kT*kT*dA*dA*d[5mC]*dT*d[5mC]*dA*d[5mC]*dG*dA*dA*kG*kA*k[5mC]; antisense) [compound 1076147] | 25

Same assay, conditions: Yap1 mRNA as percent of untreated control; A-431 cells; 3-10-3 cEt gapmers targeting SEQ ID NO.: 1, and 2; Table 30

Substance | YAP1 (% UTC)
1074512 (kG*kG*kA*dT*dA*d[5mC]*dA*dT*dT*d[5mC]*d[5mC]*dA*d[5mC]*kT*kA*k[5mC]; antisense) [compound 1074512] | 64
1075888 (antisense kA*k[5mC]*kT*dT*dA*dA*dA*d[5mC]*dT*dT*dG*dA*dG*kG*kG*kA) [compound 1075888] | 22

Same assay, conditions: Yap1 mRNA as percent of untreated control; A-431 cells; 3-10-3 cEt gapmers targeting SEQ ID NO.: 1, and 2; Table 31

Substance | YAP1 (% UTC)
1076177 (k[5mC]*kT*kT*dT*dA*dT*dT*dT*d[5mC]*d[5mC]*d[5mC]*dA*d[5mC]*k[5mC]*k[5mC]*kG; antisense) [compound 1076177] | 37
1075313 (antisense k[5mC]*kT*kT*dA*dA*dT*dT*dG*dA*dA*d[5mC]*dT*d[5mC]*kA*kG*kG) [compound 1075313] | 28
1075153 (kA*kT*kT*dA*dT*dA*dA*dT*dG*dG*dG*dA*dG*kG*kA*kT; antisense) [compound 1075153] | 38
1076561 (kG*kT*kA*dT*dA*d[5mC]*d[5mC]*dA*dA*dG*d[5mC]*dT*dA*k[5mC]*kT*k[5mC]; antisense) [compound 1076561] | 22
